The text below walks through data of publication PMC8246065 (The EMBO Journal, 2021).

One series concerns BMDMs and fibroblasts. Description: Cell death upon stressor treatment. In kind it is cell-based. Particulars: same concentration. As to the method:
Cell viability assays were performed with CellTiter 96 AQueous one solution reagent (Promega) according to the manufacturer’s instructions. Cell viability upon various stimulations was normalized to corresponding controls.

In series [1] the test system is human dermal fibroblasts (HDFs). The series is described as follows: S1P quantification by ELISA in cell lysates. Particulars: primary fibroblasts, Fig 3C. In kind it is cell-based. As to the method:
Human neonatal dermal fibroblasts were grown in DMEM full medium. For each condition, 2x T75 flask cells were required. After 4‐h stimulation with various stressors, cells were washed with PBS and collected in lysis buffer (20 mM PIPES PH7.4, 150 mM NaCl, 1 mM EGTA, 1% v/v Triton X‐100, 1.5 mM MgCl2, 0.1% SDS, 1X PhosSTOP, 1X Protease inhibitor cocktail without EDTA). Protein concentration was measured by BCA assay kit (Thermo Fisher) and diluted with delipidized serum to 1 µg/µl. Then, the diluted samples were added into S1P ELISA plates according to the instructions.

The subject of series [2] is HDFs and HeLa inducible NOD1 or NOD2 cells. Description: IL6 expression and production in response to various stressors with sphingosine kinase inhibition. In kind it is cell-based, human. The settings on record: SPHKi 50 µM (Fig 3D-G). As to the method:
(§1) The human monocytic cell line THP‐1 was obtained from the American Type Culture Collection (ATCC, TIB‐202) and maintained in RPMI 1640 (Gibco, 31870) with 10% (v:v) heat‐inactivated fetal bovine serum (FBS, Sigma‐Aldrich, F0804), 1 mM sodium pyruvate (Gibco, 11360070), 2 mM L‐glutamine (Gibco, 25030081), 10 mM HEPES buffer (Gibco, 15630080), pH 7.2‐7.5, and 50 µM 2‐mercaptoethanol (Gibco, 31350010). To differentiate THP‐1 into macrophage‐like cells, THP‐1 cells were stimulated with 50 ng/ml phorbol 12‐myristate 13‐acetate (Sigma‐Aldrich, P8139) for 24 h and then incubated with fresh medium for another 48 h. HEK293T WT and HEK293T NOD1/2 dKO cells were generated as described (Dagil et al, 2016). […]
(§2) Total RNA was isolated with TRIzol reagent, as described by the manufacturer (Invitrogen). […] Gene expression was normalized to glyceraldehyde‐3‐phosphate dehydrogenase (GAPDH), and fold changes were calculated against corresponding controls. qRT–PCR data were representative of at least three independent experiments, with at least 2 technical replicates per experiment. […]

In series [3] the test system is THP‐1 cells, BMDMs, and human CD14+ monocytes. The series is described as follows: IL6 expression and production upon tunicamycin-induced ER stress with sphingolipid pathway inhibitors. Particulars: inhibitor pretreatment, tunicamycin 5 µg/ml; all types of cells. The series is classed as cell-based. The protocol: as §1, §2
Series [4] has as its target T1, NOD1 (Homo sapiens, UniProt Q9Y239).
T1 sequence (Q9Y239 1-953): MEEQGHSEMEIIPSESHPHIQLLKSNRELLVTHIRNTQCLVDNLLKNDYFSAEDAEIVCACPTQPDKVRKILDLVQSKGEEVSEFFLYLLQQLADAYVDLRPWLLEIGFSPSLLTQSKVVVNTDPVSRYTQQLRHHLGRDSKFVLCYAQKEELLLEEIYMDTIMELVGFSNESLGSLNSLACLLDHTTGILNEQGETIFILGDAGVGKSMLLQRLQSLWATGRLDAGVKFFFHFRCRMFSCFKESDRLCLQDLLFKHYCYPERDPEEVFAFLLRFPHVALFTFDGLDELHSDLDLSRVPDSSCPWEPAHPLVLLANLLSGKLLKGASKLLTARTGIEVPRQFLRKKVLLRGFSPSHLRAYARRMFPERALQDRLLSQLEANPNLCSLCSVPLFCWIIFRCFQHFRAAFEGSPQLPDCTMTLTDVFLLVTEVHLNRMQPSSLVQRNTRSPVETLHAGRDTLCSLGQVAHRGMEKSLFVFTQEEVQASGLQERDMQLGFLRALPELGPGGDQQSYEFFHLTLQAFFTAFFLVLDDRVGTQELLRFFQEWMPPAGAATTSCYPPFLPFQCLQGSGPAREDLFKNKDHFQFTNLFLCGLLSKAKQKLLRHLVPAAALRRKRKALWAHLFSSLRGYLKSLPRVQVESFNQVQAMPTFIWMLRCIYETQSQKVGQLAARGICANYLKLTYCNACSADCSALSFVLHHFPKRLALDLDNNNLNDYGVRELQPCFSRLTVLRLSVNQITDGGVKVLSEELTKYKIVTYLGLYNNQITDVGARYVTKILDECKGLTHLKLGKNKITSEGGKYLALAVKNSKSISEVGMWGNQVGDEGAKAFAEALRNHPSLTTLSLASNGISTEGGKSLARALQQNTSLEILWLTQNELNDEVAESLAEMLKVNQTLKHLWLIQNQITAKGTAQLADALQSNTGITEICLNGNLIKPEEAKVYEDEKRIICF
Description: Microscale thermophoresis (MST) binding to purified NOD1-GFP. The settings on record: read-out: Kd value of ADP alone with NOD1. As to the method:
(§3) The lysates were incubated with 2 ml GFP‐Trap agarose at 4°C for 4 h. The agarose was collected with Poly‐Prep columns by gravity flow. […] To remove heat shock proteins, columns were further washed with 50 ml wash buffer III (50 mM Tris–HCl, pH 7.5, 150 mM NaCl, 5 mM MgCl2+, 1 mM ATP). To elute the proteins, the agarose was mixed with 2 ml elution buffer (100 mM Glycine, pH 2.5) for 1 min and the eluted proteins were immediately neutralized with 0.2 ml of 1 M Tris, pH 10.5.
For orientation: In MST a laser heats a spot of the sample, and binding alters the fluorescence response.

The target of another series is NOD2 (Homo sapiens, UniProt Q9HC29). Description: Microscale thermophoresis (MST) binding to purified NOD2-GFP. The settings on record: read-out: Kd value of ADP alone with NOD2. The protocol: as §3
Series [5] concerns NOD1. Set-up: method as in Askari et al, 2012. Particulars: quoted by referee; ref Askari et al, 2012; read-out: NOD1 affinity, IC50; cited from earlier work.
For the next series, the system named is THP‐1 cells. Description: IL6 expression and production in THP-1 cells upon ER stress (de novo vs hydrolysis pathway inhibitors). The series is classed as cell-based, human. The settings on record: THP-1, tunicamycin 5 µg/ml, Appendix Fig S2. As to the method:
The human monocytic cell line THP‐1 was obtained from the American Type Culture Collection (ATCC, TIB‐202) and maintained in RPMI 1640 (Gibco, 31870) with 10% (v:v) heat‐inactivated fetal bovine serum (FBS, Sigma‐Aldrich, F0804), 1 mM sodium pyruvate (Gibco, 11360070), 2 mM L‐glutamine (Gibco, 25030081), 10 mM HEPES buffer (Gibco, 15630080), pH 7.2‐7.5, and 50 µM 2‐mercaptoethanol (Gibco, 31350010). To differentiate THP‐1 into macrophage‐like cells, THP‐1 cells were stimulated with 50 ng/ml phorbol 12‐myristate 13‐acetate (Sigma‐Aldrich, P8139) for 24 h and then incubated with fresh medium for another 48 h. HEK293T WT and HEK293T NOD1/2 dKO cells were generated as described (Dagil et al, 2016). HeLa inducible NOD1‐GFP and NOD2‐GFP cells were generated by co‐transfection of pcDNA5/FRT/TO‐EGFP‐NOD1 or pcDNA5/FRT/TO‐EGFP‐NOD2 (Addgene #131206 and #131207) together with pOG44 in a 9:1 ratio into HeLa FlpIN T‐REx cells (kindly provided by the Hentze Lab, EMBL, Heidelberg) using Lipofectamine 2000 (Thermo Fisher Scientific) and selected with 10 µg/ml blasticidin and 500 µg/ml hygromycin B. HeLa inducible NOD1‐GFP and NOD2‐GFP cells, human neonatal dermal fibroblasts, and HEK293T cells (DSMZ, ACC305) were maintained in complete Dulbecco’s modified Eagle’s medium (DMEM) 4.5 g/l glucose (Gibco, 10938) with 10% (v:v) heat‐inactivated FBS, 1 mM sodium pyruvate, and 2 mM L‐glutamine. To induce NOD1 or NOD2 expression, HeLa NOD1 or NOD2 cells were treated with 0.5 µg/ml or 0.25 µg/ml doxycycline for at least 16 h, respectively. All cells have been checked for mycoplasma contamination regularly. […]
as §2

Sequence of NOD2 (Q9HC29 whole entry): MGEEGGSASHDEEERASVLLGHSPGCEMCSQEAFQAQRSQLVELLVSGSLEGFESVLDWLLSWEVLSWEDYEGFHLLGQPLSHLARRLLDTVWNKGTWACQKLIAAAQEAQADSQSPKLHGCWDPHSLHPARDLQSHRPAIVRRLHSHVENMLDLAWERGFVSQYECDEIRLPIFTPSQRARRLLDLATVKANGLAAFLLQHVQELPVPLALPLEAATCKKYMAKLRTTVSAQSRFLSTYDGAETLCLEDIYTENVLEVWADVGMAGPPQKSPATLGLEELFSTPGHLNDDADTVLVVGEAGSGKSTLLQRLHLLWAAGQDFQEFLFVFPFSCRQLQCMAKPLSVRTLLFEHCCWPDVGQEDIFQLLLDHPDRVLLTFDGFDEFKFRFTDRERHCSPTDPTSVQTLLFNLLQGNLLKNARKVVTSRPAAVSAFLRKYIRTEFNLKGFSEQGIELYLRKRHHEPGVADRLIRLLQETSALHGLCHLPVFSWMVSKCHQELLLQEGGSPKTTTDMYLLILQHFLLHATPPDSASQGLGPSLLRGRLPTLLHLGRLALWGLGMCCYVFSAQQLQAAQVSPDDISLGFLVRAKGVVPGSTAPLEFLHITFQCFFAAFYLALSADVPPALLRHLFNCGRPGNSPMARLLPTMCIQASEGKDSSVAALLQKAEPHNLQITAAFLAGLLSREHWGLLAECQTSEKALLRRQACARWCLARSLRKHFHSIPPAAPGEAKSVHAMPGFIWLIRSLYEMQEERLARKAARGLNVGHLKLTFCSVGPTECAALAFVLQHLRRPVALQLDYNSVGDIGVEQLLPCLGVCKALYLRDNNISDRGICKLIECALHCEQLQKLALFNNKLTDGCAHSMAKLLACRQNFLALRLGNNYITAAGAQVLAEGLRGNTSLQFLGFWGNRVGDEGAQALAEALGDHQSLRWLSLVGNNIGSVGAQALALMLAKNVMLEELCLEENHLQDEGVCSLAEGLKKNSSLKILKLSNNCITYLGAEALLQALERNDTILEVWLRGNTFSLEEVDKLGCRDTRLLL

`C[C@@H]1C[C@@H]([C@H](O)CC2CC(=O)NC(=O)C2)C(=O)[C@@H](C)C1` [CHX, cycloheximide]: in the series with BMDMs and fibroblasts, the “Cell death in BMDMs compared with fibroblasts” value is “higher”. Moreover, in series [1], the “Level of S1P in fibroblasts upon stressor” value is “highest level of S1P in fibroblasts”. Consider `Oc1ccc(Nc2nc(-c3ccc(Cl)cc3)cs2)cc1` [SKI‐II], for which the “IL6 expression and production in response to various stressors” value in series [2] is listed as “markedly diminished”. For the same compound, the “IL6 expression and production upon tunicamycin-induced ER stress” value in series [3] was “abolished”.

Consider `COc1ccc(/C=C/C(=O)c2c(-c3ccccc3)c3ccccc3[nH]c2=O)cc1` [ceranib‐2], for which the “IL6 expression and production upon tunicamycin-induced ER stress” value in series [3] is “abolished”. A word on the Kd: it is the equilibrium constant for the complex coming apart. For orientation: IC50 means the concentration needed to halve the response being measured. With `Nc1ncnc2c1ncn2[C@@H]1O[C@H](COP(=O)(O)OP(=O)(O)O)[C@@H](O)[C@H]1O` [ADP], the Kd was approximately 100 nM at NOD1 [4] and approximately 150 nM on NOD2. In addition, the IC50 with NOD1 [5] is approximately 190 nM. With `O=C(/C=C/c1ccc(/C=C/C(=O)Nc2ccc(C3=NCCN3)cc2)cc1)Nc1ccc(C2=NCCN2)cc1` [GW4869], in the series on THP‐1 cells, the “IL6 expression and production upon ER stress” value is on record as “not”. The same measure, in the same setting: in the case of `CN(C)CCCN1c2ccccc2CCc2ccccc21` [imipramine] it was “abrogated”; in that of `N[C@H]1CON=C1O` [L‐cycloserine], “not”.

For the compound `Nc1ncnc2c1ncn2[C@@H]1O[C@H](COP(=O)(O)OP(=O)(O)OP(=O)(O)O)[C@@H](O)[C@H]1O` [ATP], the IC50 in the series with NOD1 [5] is approximately 15 nM.
